From PMC6696115, “Characterization of Antimicrobial, Antioxidant, and Leishmanicidal Activities of Schiff Base Derivatives of 4-Aminoantipyrine” (Molecules, 2019)
≈ marks a conversion by molar mass, not a printed value.

Tests used:
[1] = system: Aspergillus niger ATCC 6275; test: antimicrobial serial microdilution, A. niger; assay type: cell-based; conditions: Aspergillus niger, ATCC6275; serial microdilution, 96-well plates, 35 °C, 48 h, max 2% DMSO
Method: (§1) The in vitro antifungal and antimicrobial activities were determined by testing the Schiff bases against the fungi Saccharomyces cerevisiae, Candida albicans, and Aspergillus niger and the bacteria Staphylococcus aureus, Enterococcus faecalis (Gram-positive), Pseudomonas aeruginosa, and Escherichia coli (Gram-negative).
(§2) The bacterial inoculum was prepared by emulsifying overnight colonies from an agar medium in broth (Mueller–Hinton broth). The suspensions were adjusted to a final organism density of 5 × 10^5 colony former units (cfu)/mL. […] The emulsifying of A. niger cultures was done by pouring 5 mL of saline and 0.1% of polysorbate 80 over the Petri dishes. Then, 100 µL of this suspension were diluted in 5 mL of saline and adjusted to an optical density of 0.1 at 530 nm. For S. cerevisiae, fresh exponential YPAD (yeast extract 1%, peptone 2%, adenine 0.004%, […]) cultures were adjusted to an optical density of 0.5 at 600 nm, and then diluted to the equivalent of 1 × 10^4 cells/mL (10^−3 dilution). Stock solutions of Schiff bases were prepared by dissolving them in DMSO at 10 mg/mL. […] The range of concentrations used was empirically selected for each organisms and the Schiff base. Drug sensitivities were assayed by serial dilutions in 96-well plates as previously described. A row with media and cells but without drug was the positive control. The blank was done by preparing a row with media and drugs, but without cells. Plates were fitted with a tight lid before incubation to prevent desiccation. […] The minimum bactericidal concentration (MBC) and fungicidal concentration (MFC) were determined by spreading 100 µL of culture from each well onto a plate (Mueller–Hinton agar for bacteria, Sabouraud dextrose agar for fungi except S. cerevisiae, and YPAD for S. cerevisiae).

[2] = system: Staphylococcus aureus ATCC 29213; test: antimicrobial serial microdilution, S. aureus; assay type: cell-based; conditions: Staphylococcus aureus, ATCC29213; serial microdilution, 37 °C, 24 h
Method: as §1, §2

[3] = system: RAW 264.7 cells; test: cell viability, MTT dye assay; assay type: cell-based, murine; conditions: RAW 264.7, exposure to 400 µM, 48 h
Method: The specificity and selectivity for the pathogen target is a key point for any potential drug.
The medium was renewed once a week. The viability was determined using MTT (thiazolyl blue tetrazolium bromide) dye assay as described previously for leishmanicidal activity assessment, with some variations. Here, 5 × 10^4 cells/well in a final volume of 100 µL were deposited into a 96-well plate in triplicate. Saponin (2 and 4 mg/mL) and untreated cells were used as the positive control and negative control, respectively. Schiff bases were dissolved in DMSO to obtain different serial concentrations (0.01–2000 µM). […] Cells were pelleted by centrifugation at 4400 rpm for 10 minutes and the media was removed. Next, 100 µL/well of DMSO were added and the absorbance at 570 nm was recorded. A reference wavelength of 630 nm was used for background subtraction.

[4] = system: Candida albicans ATCC 10231; test: antimicrobial serial microdilution, C. albicans; assay type: cell-based; conditions: serial microdilution, 35 °C, 48 h
Method: as §1, §2

[5] = system: S. cerevisiae (backgrounds W303 and BY4741); test: antimicrobial serial microdilution, S. cerevisiae; assay type: cell-based, Saccharomyces cerevisiae; conditions: Saccharomyces cerevisiae; serial microdilution, 35 °C, 48 h; read-out: MIC S. cerevisiae
Method: as §1, §2

[6] = system: P. aeruginosa ATCC 27853; test: antimicrobial serial microdilution, P. aeruginosa; assay type: cell-based; conditions: Pseudomonas aeruginosa, ATCC27853, 37 °C, 24 h
Method: as §1, §2

Cc1c(N=Cc2ccccc2O)c(=O)n(-c2ccccc2)n1C [Compound 3b, 4-(2-Hydroxybenzylideneamino)-1,5-dimethyl-2-phenyl-1H-pyrazol-3(2H)-one]
MIC [1]: > 200 µg/mL | MIC [2]: > 200 µg/mL | % Live Cells [3]: 19.3 ± 0.2% | IC50 ([4]; Candida albicans, ATCC10231): 5.8 µg/mL (≈ 18.9 µM) | MIC ([4]; Candida albicans, ATCC10231): 13.2 ± 1.6 µg/mL (≈ 42.9 µM) | NIC C. albicans ([4]; noninhibitory concentration): 3.0 ± 2.2 µg/mL | MIC [5]: > 200 µg/mL | MIC [6]: > 200 µg/mL
